From US20090023645A1, “AIB1, a novel steroid receptor co-activator” (The Government of the United States of America as …, priority 1997, published 2009)

Assays:
ER = assay: transient transfection ER reporter (luciferase) transcription assay in COS-1 cells; format: cell-based; conditions: 100 nM 4-hydroxytamoxifen in place of 17β-estradiol
Description: COS-1 cells were transiently transfected with 250 ng ER expression vector (pHEGO-hyg), 10 ng of luciferase reporter plasmid (pGL3.luc.3ERE or 10 ng pGL3 lacking ERE) and increasing amounts of pcDNA3.1-AIB1 and incubated in the absence (open bars) or presence of 10 nM 17β-stradiol (E2, solid bars) or 100 nM 4-hydroxytamoxifen (hatched bars). Luciferase activity was expressed in relative luminescence units (RLU). The data are the mean of three determinations from one of four replicate experiments. Error bars indicate one standard deviation.
To determine whether expression of AIB1 increases ER ligand-dependent transactivation, transient transfection assays were performed. The effect of increasing levels of AIB1 on transcription of an ER dependent reporter was measured. […] This effect was not observed when the estrogen antagonist, 4-hydroxytamoxifen (4-OHT), was substituted for 17β-estradiol or when the estrogen response element (ERE) was removed from the reporter plasmid (FIG. 3).
To determine the effect of AIB1 on estrogen-dependent transcription, an ER reporter plasmid can be used. […] Reporter activities were determined using the Dual-Luciferase Reporter Assay System (Promega) and the results expressed in relative luminescence units (RLU; luciferase/Renilla luciferase). pRL-CMV and pGL3-promoter were obtained from Promega. pHEGO-hyg was obtained from ATCC. […]

metastatic tumor = assay: tamoxifen treatment of a patient whose metastatic breast tumor showed high AIB1 copy number; format: in vivo; conditions: one post-menopausal patient, ER/PR positive metastatic tumor with high AIB1 copy number
recurrent breast cancer = assay: response to tamoxifen therapy in patients with recurrent breast cancer and ER-positive primary tumors; format: in vivo
Description: Loss of estrogen receptor in recurrent breast caner is also associated with poor response to endocrine therapy. […] The frequency of hormone receptor status changes between primary and recurrent tumors and whether such a change might explain unresponsiveness to endocrine therapy was examined. Primary breast cancer samples and matched asynchronous recurrences were studied from 50 patients who had not received any adjuvant therapy. ER and progesterone receptor (PR) status was determined immunohistochemically from histologically representative formalin-fixed paraffin-embedded tumor samples. ER status was ascertained by mRNA in situ hybridization. Thirty-five (70%) of 50 primary tumors were positive for ER and 30 (60%) for PR. Hormone receptor status of the recurrent tumor differed from that of the primary tumor in 18 cases (36%). Discordant cases were due to the loss of ER (n=6), loss of PR (n=6), or loss of both receptors (n=6). Receptor-negative primary tumors were always accompanied by receptor-negative recurrences. Among 27 patients with ER-positive primary tumors, loss of ER was a significant predictor (P=0.0085) of poor response to subsequent endocrine therapy. […] Loss of ER expression in recurrent breast cancer predicts poor response to endocrine therapy in primarily ER-positive patients.

Row | Compound | AIB1 dose dependent increase in transcription when the ligand is substituted for 17β-estradiol (ER) | patient response to tamoxifen treatment (metastatic tumor) | response rate to tamoxifen therapy (recurrent breast cancer; patients whose recurrent tumors retained ER expression (14 of 19)) [%] | response rate to tamoxifen therapy (recurrent breast cancer; patients with lost ER expression in the recurrent tumor (one of eight)) [%]
1 | 4-hydroxytamoxifen | not observed | – | – | –
2 | CC/C(=C(\c1ccccc1)c1ccc(OCCN(C)C)cc1)c1ccccc1 [tamoxifen] | – | responded favorably | 74 | 12.5
